Source: ChEMBL document CHEMBL1201862, “PubChem BioAssay data set” (2004)
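Exposure lasted 48 hours, with cells grown in 96-well plates and compounds tested at five concentrations. At the GI50, growth is halved.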 The source made the active and inactive calls. Rule as the data show it: active = GI50 up to about 1.1 µM and inactive = higher.

Columns and labels:
Assay in all cases: growth of human tumour cells (NCI), 48 h
786-0 = test system: 786-0
A498 = test system: A498
A549 = test system: A549
ACHN = test system: ACHN
CAKI-1 = test system: CAKI-1
CCRF-CEM = test system: CCRF-CEM
COLO 205 = test system: COLO 205
DLD-1 = test system: DLD-1
DMS-114 = test system: DMS-114
DMS-273 = test system: DMS-273
HCC 2998 = test system: HCC 2998
HCT-116 = test system: HCT-116
HCT-15 = test system: HCT-15
HL-60 = test system: HL-60
HOP-62 = test system: HOP-62
HOP-92 = test system: HOP-92
HT-29 = test system: HT-29
IGROV-1 = test system: IGROV-1
KM-20L2 = test system: KM-20L2
KM12 = test system: KM12
LOX IMVI = test system: LOX IMVI
LXFL 529 = test system: LXFL 529
M14 = test system: M14
M19-MEL = test system: M19-MEL
MOLT-4 = test system: MOLT-4
Malme-3M = test system: Malme-3M
NCI-H226 = test system: NCI-H226
NCI-H23 = test system: NCI-H23
NCI-H460 = test system: NCI-H460
NCI-H522 = test system: NCI-H522
OVCAR-3 = test system: OVCAR-3
OVCAR-4 = test system: OVCAR-4
OVCAR-5 = test system: OVCAR-5
OVCAR-8 = test system: OVCAR-8
RPMI-8226 = test system: RPMI-8226
SF-268 = test system: SF-268
SF-295 = test system: SF-295
SF-539 = test system: SF-539
SK-MEL-28 = test system: SK-MEL-28
SK-MEL-2 = test system: SK-MEL-2
SK-MEL-5 = test system: SK-MEL-5
SK-OV-3 = test system: SK-OV-3
SN12C = test system: SN12C
SNB-19 = test system: SNB-19
SNB-75 = test system: SNB-75
SNB-78 = test system: SNB-78
SR = test system: SR
SW-620 = test system: SW-620
TK-10 = test system: TK-10
U-251 = test system: U-251
UACC-257 = test system: UACC-257
UO-31 = test system: UO-31
XF498 = test system: XF498
EKVX = test system: EKVX
HOP-18 = test system: HOP-18
K562 = test system: K562
RXF 393 = test system: RXF 393
UACC-62 = test system: UACC-62

For Cc1c(-c2coc(-c3ccccc3)n2)c(=O)n(-c2ccccc2)n1C, the GI50 (786-0) was > 100 µM (inactive), the GI50 (A498) was > 100 µM (inactive) and the GI50 (A549) was > 100 µM (inactive). For the same compound, the GI50 (ACHN) was > 100 µM (inactive), the GI50 (CAKI-1) was 0.184 µM (active) and the GI50 (CCRF-CEM) was > 100 µM (inactive). For the same compound, the GI50 (COLO 205) was 78.3 µM (inactive), the GI50 (DLD-1) was > 100 µM (inactive) and the GI50 (DMS-114) was 36.6 µM (inactive). For the same compound, the GI50 (DMS-273) was > 100 µM (inactive), the GI50 (HCC 2998) was 0.1 µM (active) and the GI50 (HCT-116) was > 100 µM (inactive). For the same compound, the GI50 (HCT-15) was greater than 100 µM, the GI50 (HL-60) was 76.7 µM (inactive) and the GI50 (HOP-62) was > 100 µM (inactive). The GI50 (HOP-92) was > 100 µM (inactive), the GI50 (HT-29) was 57.7 µM (inactive) and the GI50 (IGROV-1) was > 100 µM (inactive). The GI50 (KM-20L2) was > 100 µM (inactive), the GI50 (KM12) was > 100 µM (inactive) and the GI50 (LOX IMVI) was > 100 µM (inactive). For the same compound, the GI50 (LXFL 529) was 58.1 µM (inactive), the GI50 (M14) was > 100 µM (inactive) and the GI50 (M19-MEL) was 56.2 µM (inactive). The GI50 (MOLT-4) was 25.6 µM (inactive), the GI50 (Malme-3M) was 98.6 µM (inactive) and the GI50 (NCI-H226) was 94.4 µM (inactive). For the same compound, the GI50 (NCI-H23) was > 100 µM (inactive), the GI50 (NCI-H460) was > 100 µM (inactive) and the GI50 (NCI-H522) was 29.1 µM (inactive). The GI50 (OVCAR-3) was > 100 µM (inactive), the GI50 (OVCAR-4) was > 100 µM (inactive) and the GI50 (OVCAR-5) was > 100 µM (inactive). For the same compound, the GI50 (OVCAR-8) was 44.6 µM (inactive), the GI50 (RPMI-8226) was 36.5 µM (inactive) and the GI50 (SF-268) was > 100 µM (inactive). For the same compound, the GI50 (SF-295) was > 100 µM (inactive), the GI50 (SF-539) was > 100 µM (inactive) and the GI50 (SK-MEL-28) was > 100 µM (inactive). For the same compound, the GI50 (SK-MEL-2) was > 100 µM (inactive), the GI50 (SK-MEL-5) was 25.2 µM (inactive) and the GI50 (SK-OV-3) was > 100 µM (inactive). The GI50 (SN12C) was > 100 µM (inactive), the GI50 (SNB-19) was > 100 µM (inactive) and the GI50 (SNB-75) was > 100 µM (inactive). For the same compound, the GI50 (SNB-78) was > 100 µM (inactive), the GI50 (SR) was 45.5 µM (inactive) and the GI50 (SW-620) was 37.8 µM (inactive). The GI50 (TK-10) was > 100 µM (inactive), the GI50 (U-251) was > 100 µM (inactive) and the GI50 (UACC-257) was 49.7 µM (inactive). For the same compound, the GI50 (UO-31) was 84.7 µM (inactive) and the GI50 (XF498) was 23 µM (inactive).
CCOP(=O)(C/C(O)=C1\C(=O)C(CCCCNC(=O)OC(C)(C)C)N(Cc2ccccc2)C1=O)OCC (stereo not given) was tested, and the GI50 (786-0) was > 100 µM (inactive), the GI50 (A498) was > 100 µM (inactive) and the GI50 (A549) was > 100 µM (inactive). For the same compound, the GI50 (ACHN) was > 100 µM (inactive), the GI50 (CAKI-1) was > 100 µM (inactive) and the GI50 (CCRF-CEM) was > 100 µM (inactive). For the same compound, the GI50 (COLO 205) was > 100 µM (inactive), the GI50 (DLD-1) was > 100 µM (inactive) and the GI50 (DMS-114) was > 100 µM (inactive). For the same compound, the GI50 (DMS-273) was > 100 µM (inactive), the GI50 (EKVX) was > 100 µM (inactive) and the GI50 (HCC 2998) was > 100 µM (inactive). For the same compound, the GI50 (HCT-116) was > 100 µM (inactive), the GI50 (HL-60) was 63.7 µM (inactive) and the GI50 (HOP-18) was 80.5 µM (inactive). For the same compound, the GI50 (HOP-62) was > 100 µM (inactive), the GI50 (HT-29) was > 100 µM (inactive) and the GI50 (IGROV-1) was > 100 µM (inactive). The GI50 (K562) was > 100 µM (inactive), the GI50 (KM-20L2) was > 100 µM (inactive) and the GI50 (KM12) was > 100 µM (inactive). The GI50 (LOX IMVI) was > 100 µM (inactive), the GI50 (LXFL 529) was > 100 µM (inactive) and the GI50 (M14) was > 100 µM (inactive). The GI50 (M19-MEL) was > 100 µM (inactive), the GI50 (MOLT-4) was 78.7 µM (inactive) and the GI50 (Malme-3M) was > 100 µM (inactive). The GI50 (NCI-H226) was > 100 µM (inactive), the GI50 (NCI-H23) was > 100 µM (inactive) and the GI50 (NCI-H460) was > 100 µM (inactive). For the same compound, the GI50 (NCI-H522) was 1.12 µM (inactive), the GI50 (OVCAR-3) was > 100 µM (inactive) and the GI50 (OVCAR-4) was 94.2 µM (inactive). For the same compound, the GI50 (OVCAR-5) was > 100 µM (inactive), the GI50 (OVCAR-8) was > 100 µM (inactive) and the GI50 (RPMI-8226) was > 100 µM (inactive). For the same compound, the GI50 (RXF 393) was > 100 µM (inactive), the GI50 (SF-268) was > 100 µM (inactive) and the GI50 (SF-295) was > 100 µM (inactive). For the same compound, the GI50 (SF-539) was > 100 µM (inactive), the GI50 (SK-MEL-28) was > 100 µM (inactive) and the GI50 (SK-MEL-2) was > 100 µM (inactive). The GI50 (SK-MEL-5) was > 100 µM (inactive), the GI50 (SK-OV-3) was > 100 µM (inactive) and the GI50 (SN12C) was > 100 µM (inactive). The GI50 (SNB-75) was > 100 µM (inactive), the GI50 (SR) was 69.2 µM (inactive) and the GI50 (TK-10) was > 100 µM (inactive). The GI50 (U-251) was > 100 µM (inactive), the GI50 (UACC-257) was > 100 µM (inactive) and the GI50 (UACC-62) was > 100 µM (inactive). The GI50 (UO-31) was > 100 µM (inactive).
